Assay [1] is filed under the species Homo sapiens. The assay is described as follows: Covalent binding affinity to Spl2/Rab27A C188 mutant fusion protein (unknown origin) assessed as half-life of adduct formation by measuring protein mass shift after 24 hrs by intact-protein mass spectrometry.
Assay [2] is filed under the species Homo sapiens. In words: Covalent binding affinity to Spl2/Rab27A C123 mutant fusion protein (unknown origin) assessed as half-life of adduct formation by measuring protein mass shift after 8 hrs by intact-protein mass spectrometry.

SMILES strings stand for the structures. Activity calls are given as the source filed them. No cut-off for these calls is given here.

For two compounds, Activity results are on record in ChEMBL document CHEMBL5104105, “Identification of the first structurally validated covalent ligands of the small GTPase RAB27A” (RSC Med Chem, 2022).

For the compound `C=CC(=O)N1CCC[C@H]1c1ccc(OC)cc1`, the result in the assay listed under Homo sapiens [1] was Active.

Regarding `C=CC(=O)Nc1nc2ccccc2n1CCc1ccccn1`, the result in the assay filed under Homo sapiens [1] and in the assay filed under Homo sapiens [2] was Active.
